Measurements from the supplement of paper PMC10307832.

What was measured:
Test in all cases: relative viability (nuclei count vs DMSO), 5 days (fraction); higher = more cells survive
201T = tested on: 201T
How it was run: (§1)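 Relative viability equals treated-well nuclei counts divided by vehicle-well nuclei counts. Counts came from 4× images of lung cancer cell lines grown in 1536-well plates for 5 days after pin-tool dosing on the day after seeding. Dosing used one drug alone or a fixed anchor-drug dose plus five library-drug doses (not always all listed) in √10 steps, and values are medians of duplicate plates.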

A-427 = tested on: A-427
How it was run: as §1

ABC-1 = tested on: ABC-1
How it was run: as §1

BEN = tested on: BEN
How it was run: as §1

CAL-12T = tested on: CAL-12T
How it was run: as §1

H3255 = tested on: H3255
How it was run: as §1

LC-2-ad = tested on: LC-2-ad
How it was run: as §1

LCLC-97TM1 = tested on: LCLC-97TM1
How it was run: as §1

NCI-H1650 = tested on: NCI-H1650
How it was run: as §1

NCI-H1651 = tested on: NCI-H1651
How it was run: as §1

NCI-H1915 = tested on: NCI-H1915
How it was run: as §1

NCI-H1944 = tested on: NCI-H1944
How it was run: as §1

NCI-H2023 = tested on: NCI-H2023
How it was run: as §1

NCI-H2087 = tested on: NCI-H2087
How it was run: as §1

NCI-H441 = tested on: NCI-H441
How it was run: as §1

NCI-H460 = tested on: NCI-H460
How it was run: as §1

NCI-H520 = tested on: NCI-H520
How it was run: as §1

NCI-H596 = tested on: NCI-H596
How it was run: as §1

NCI-H650 = tested on: NCI-H650
How it was run: as §1

NCI-H661 = tested on: NCI-H661
How it was run: as §1

NCI-H727 = tested on: NCI-H727
How it was run: as §1

PC-3 [JPC-3] = tested on: PC-3 [JPC-3]
How it was run: as §1

Work on `Nc1ccn([C@@H]2O[C@H](CO)[C@@H](O)[C@@H]2O)c(=O)n1` [Cytarabine] + O=C(CCCCCCC(=O)Nc1ccccc1)NO [Vorinostat] (partner 1 µM) yielded a relative viability (201T; first compound 0.005 µM) of 0.978, a relative viability (201T; first compound 0.01581 µM) of 1.03 and a relative viability (201T; first compound 0.05 µM) of 1. For the same molecule, the relative viability (201T; first compound 0.1581 µM) was 0.994, the relative viability (201T; first compound 0.5 µM) was 0.937 and the relative viability (A-427; first compound 0.005 µM) was 0.758. It also gave a relative viability (A-427; first compound 0.01581 µM) of 0.636, a relative viability (A-427; first compound 0.05 µM) of 0.325 and a relative viability (A-427; first compound 0.1581 µM) of 0.339. The relative viability (A-427; first compound 0.5 µM) was 0.306, the relative viability (ABC-1; first compound 0.005 µM) was 0.934 and the relative viability (ABC-1; first compound 0.01581 µM) was 0.995. It also gave a relative viability (ABC-1; first compound 0.05 µM) of 0.972, a relative viability (ABC-1; first compound 0.1581 µM) of 0.933 and a relative viability (ABC-1; first compound 0.5 µM) of 0.744. For the same molecule, the relative viability (BEN; first compound 0.005 µM) was 0.553, the relative viability (BEN; first compound 0.01581 µM) was 0.56 and the relative viability (BEN; first compound 0.05 µM) was 0.447. The relative viability (BEN; first compound 0.1581 µM) was 0.394, the relative viability (BEN; first compound 0.5 µM) was 0.364 and the relative viability (CAL-12T; first compound 0.005 µM) was 0.53. It also gave a relative viability (CAL-12T; first compound 0.01581 µM) of 0.68, a relative viability (CAL-12T; first compound 0.05 µM) of 0.739 and a relative viability (CAL-12T; first compound 0.1581 µM) of 0.477. The relative viability (CAL-12T; first compound 0.5 µM) was 0.27, the relative viability (H3255; first compound 0.005 µM) was 0.862 and the relative viability (H3255; first compound 0.01581 µM) was 0.853. For the same molecule, the relative viability (H3255; first compound 0.05 µM) was 0.655, the relative viability (H3255; first compound 0.1581 µM) was 0.608 and the relative viability (H3255; first compound 0.5 µM) was 0.878. The relative viability (LC-2-ad; first compound 0.005 µM) was 0.766, the relative viability (LC-2-ad; first compound 0.01581 µM) was 0.691 and the relative viability (LC-2-ad; first compound 0.05 µM) was 0.67. For the same molecule, the relative viability (LC-2-ad; first compound 0.1581 µM) was 0.646, the relative viability (LC-2-ad; first compound 0.5 µM) was 0.436 and the relative viability (LCLC-97TM1; first compound 0.005 µM) was 0.752. For the same molecule, the relative viability (LCLC-97TM1; first compound 0.01581 µM) was 0.562, the relative viability (LCLC-97TM1; first compound 0.05 µM) was 0.166 and the relative viability (LCLC-97TM1; first compound 0.1581 µM) was 0.275. It also gave a relative viability (LCLC-97TM1; first compound 0.5 µM) of 0.102, a relative viability (NCI-H1650; first compound 0.005 µM) of 0.563 and a relative viability (NCI-H1650; first compound 0.01581 µM) of 0.514. It also gave a relative viability (NCI-H1650; first compound 0.05 µM) of 0.261, a relative viability (NCI-H1650; first compound 0.1581 µM) of 0.241 and a relative viability (NCI-H1650; first compound 0.5 µM) of 0.226. For the same molecule, the relative viability (NCI-H1651; first compound 0.005 µM) was 0.585, the relative viability (NCI-H1651; first compound 0.01581 µM) was 0.535 and the relative viability (NCI-H1651; first compound 0.05 µM) was 0.242. For the same molecule, the relative viability (NCI-H1651; first compound 0.1581 µM) was 0.489, the relative viability (NCI-H1651; first compound 0.5 µM) was 0.417 and the relative viability (NCI-H1915; first compound 0.005 µM) was 0.477. It also gave a relative viability (NCI-H1915; first compound 0.01581 µM) of 0.424, a relative viability (NCI-H1915; first compound 0.05 µM) of 0.375 and a relative viability (NCI-H1915; first compound 0.1581 µM) of 0.318. The relative viability (NCI-H1915; first compound 0.5 µM) was 0.235, the relative viability (NCI-H1944; first compound 0.005 µM) was 0.508 and the relative viability (NCI-H1944; first compound 0.01581 µM) was 0.326. It also gave a relative viability (NCI-H1944; first compound 0.05 µM) of 0.309, a relative viability (NCI-H1944; first compound 0.1581 µM) of 0.203 and a relative viability (NCI-H1944; first compound 0.5 µM) of 0.159. The relative viability (NCI-H2023; first compound 0.005 µM) was 0.434, the relative viability (NCI-H2023; first compound 0.01581 µM) was 0.225 and the relative viability (NCI-H2023; first compound 0.05 µM) was 0.22. It also gave a relative viability (NCI-H2023; first compound 0.1581 µM) of 0.101, a relative viability (NCI-H2023; first compound 0.5 µM) of 0.0846 and a relative viability (NCI-H2087; first compound 0.005 µM) of 0.416. It also gave a relative viability (NCI-H2087; first compound 0.01581 µM) of 0.961, a relative viability (NCI-H2087; first compound 0.05 µM) of 0.598 and a relative viability (NCI-H2087; first compound 0.1581 µM) of 0.288. The relative viability (NCI-H2087; first compound 0.5 µM) was 0.308, the relative viability (NCI-H441; first compound 0.005 µM) was 0.527 and the relative viability (NCI-H441; first compound 0.01581 µM) was 0.882. For the same molecule, the relative viability (NCI-H441; first compound 0.05 µM) was 0.852, the relative viability (NCI-H441; first compound 0.1581 µM) was 0.398 and the relative viability (NCI-H441; first compound 0.5 µM) was 0.229. The relative viability (NCI-H460; first compound 0.005 µM) was 0.422, the relative viability (NCI-H460; first compound 0.01581 µM) was 0.436 and the relative viability (NCI-H460; first compound 0.05 µM) was 0.259. The relative viability (NCI-H460; first compound 0.1581 µM) was 0.0538, the relative viability (NCI-H460; first compound 0.5 µM) was 0.0412 and the relative viability (NCI-H520; first compound 0.005 µM) was 0.636. The relative viability (NCI-H520; first compound 0.01581 µM) was 0.668, the relative viability (NCI-H520; first compound 0.05 µM) was 0.776 and the relative viability (NCI-H520; first compound 0.1581 µM) was 0.555. The relative viability (NCI-H520; first compound 0.5 µM) was 0.502, the relative viability (NCI-H596; first compound 0.005 µM) was 0.545 and the relative viability (NCI-H596; first compound 0.01581 µM) was 0.553. It also gave a relative viability (NCI-H596; first compound 0.05 µM) of 0.502, a relative viability (NCI-H596; first compound 0.1581 µM) of 0.431 and a relative viability (NCI-H596; first compound 0.5 µM) of 0.272. The relative viability (NCI-H650; first compound 0.005 µM) was 0.417, the relative viability (NCI-H650; first compound 0.01581 µM) was 0.315 and the relative viability (NCI-H650; first compound 0.05 µM) was 0.212. The relative viability (NCI-H650; first compound 0.1581 µM) was 0.136, the relative viability (NCI-H650; first compound 0.5 µM) was 0.112 and the relative viability (NCI-H661; first compound 0.005 µM) was 0.751. It also gave a relative viability (NCI-H661; first compound 0.01581 µM) of 0.698, a relative viability (NCI-H661; first compound 0.05 µM) of 0.6 and a relative viability (NCI-H661; first compound 0.1581 µM) of 0.513. For the same molecule, the relative viability (NCI-H661; first compound 0.5 µM) was 0.456, the relative viability (NCI-H727; first compound 0.005 µM) was 1.22 and the relative viability (NCI-H727; first compound 0.01581 µM) was 1.16. The relative viability (NCI-H727; first compound 0.05 µM) was 0.566, the relative viability (NCI-H727; first compound 0.1581 µM) was 0.552 and the relative viability (NCI-H727; first compound 0.5 µM) was 0.524. For the same molecule, the relative viability (PC-3 [JPC-3]; first compound 0.005 µM) was 0.78, the relative viability (PC-3 [JPC-3]; first compound 0.01581 µM) was 0.775 and the relative viability (PC-3 [JPC-3]; first compound 0.05 µM) was 0.546. It also gave a relative viability (PC-3 [JPC-3]; first compound 0.1581 µM) of 0.466 and a relative viability (PC-3 [JPC-3]; first compound 0.5 µM) of 0.592.
